Source: patent US11673866B2, “Estrogen receptor beta ligands for the prevention and treatment of multiple sclerosis (MS) and other demyelinating, inflammatory and neurodegenerative diseases” (The Board of Trustees of the University of Illinois, priority 2018, dated 2023)
Entries after “also recorded” stand apart in the source; their conditions may differ. Each block holds one molecule with its values, some of them ahead of it.

Key:
corpus callosum axons = assay: Electron microscopy g-ratio of corpus callosum axons of EAE mice; assay type: in vivo, mouse; set-up: key to Myelination: g-ratio: ‘+’ indicate marker was significantly (p ≤ 0.05) increased in treatment group relative to vehicle; ‘−’ indicates marker was significantly (p ≤ 0.05) decreased in treatment group relative to vehicle; ○: ‘o’ indicate marker did not change relative to vehicle; conditions: vs vehicle; for Myelination: g-ratio: Post (therapeutic, postEAE) treatment of EAE mice
Protocol: Transmission Electron Microscopy: Mice were perfused with PBS as above followed by paraformaldehyde/glutaraldehyde to preserve ultrastructure and Epon embedded as previously described (Crawford et al., 2010). Serial ultrathin sections of Epon-embedded CC were stained with uranyl acetate-lead citrate were used for electron microscopy analysis (19). G-ratio was measured using Fiji v1.0 Software (NIH).
EM analysis (FIGS. 8A and 8B): Within a given field imaged, g-ratios were calculated by comparing mean ratio of inner axonal diameter to total outer diameter for all myelinated and non-myelinated fibers. […] Treatment with IndCl or either analogue decreased both non-myelinated axons numbers and g-ratio relative to vehicle.

ERα = molecular target: T1, ERα (Homo sapiens, UniProt P03372); assay: Relative binding affinity (RBA) to estrogen receptor alpha, radiometric measurement; conditions: relative value to 100% for E2 by radiometric measurement
T1 sequence (P03372 1-595): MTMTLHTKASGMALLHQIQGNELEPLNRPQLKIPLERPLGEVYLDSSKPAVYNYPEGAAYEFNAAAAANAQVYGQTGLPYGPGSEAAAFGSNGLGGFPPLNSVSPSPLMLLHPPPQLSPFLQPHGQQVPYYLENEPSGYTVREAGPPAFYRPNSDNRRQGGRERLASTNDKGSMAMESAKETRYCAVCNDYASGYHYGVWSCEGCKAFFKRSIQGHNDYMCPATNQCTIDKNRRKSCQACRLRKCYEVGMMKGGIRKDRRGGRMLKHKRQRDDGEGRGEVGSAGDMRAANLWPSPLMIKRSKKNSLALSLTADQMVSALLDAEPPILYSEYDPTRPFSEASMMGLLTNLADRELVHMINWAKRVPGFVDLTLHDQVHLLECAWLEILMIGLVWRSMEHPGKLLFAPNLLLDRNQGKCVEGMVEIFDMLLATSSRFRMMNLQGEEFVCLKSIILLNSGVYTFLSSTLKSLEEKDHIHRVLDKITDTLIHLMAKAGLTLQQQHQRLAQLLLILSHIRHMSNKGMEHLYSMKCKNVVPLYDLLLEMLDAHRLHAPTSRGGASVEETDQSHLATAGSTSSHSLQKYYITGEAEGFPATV

CXCL1 = CXCL1 staining in thoracic ventral column white matter of EAE mice; assay type: in vivo, mouse; set-up: key to CNS Chemokines: CXCL1: ‘+’ indicate marker was significantly (p ≤ 0.05) increased in treatment group relative to vehicle; ‘−’ indicates marker was significantly (p ≤ 0.05) decreased in treatment group relative to vehicle; ○: ‘o’ indicate marker did not change relative to vehicle; conditions: vs vehicle; for CXCL1 staining intensity, thoracic ventral column: therapeutic treatment (postEAE)
Source text: Immunohistochemistry: Before histological staining, 40-μm free floating sections were thoroughly washed with PBS to remove residual sodium azide (Crawford et al., 2010). Sections were permeabilized with 0.3% Triton X-100 in ix PBS and 15% normal goat serum (NGS). Myelination, gliosis and immune markers were visualized by the following primary antibodies at a concentration of 1:500 unless otherwise noted: chicken anti-myelin basic protein (MBP; polyclonal, EMD Millipore, Darmstadt, Germany), chicken anti-glial fibrillary acidic protein (GFAP; EMD Millipore, Darmstadt), rat anti-cluster of differentiation 45 (CD45; clone 30-F11, BD Biosciences, San Diego, Calif.), mouse anti-ionized calcium-binding adapter molecule 1/allograft inflammatory factor-1 (Iba1/AIF1; clone 20A12.1, EMD Millipore, Darmstadt, Germany), goat anti-CXCL1 (R&D systems; Minneapolis, Minn.) at 1:250 and mouse anti-adenomatous polyposis coli (CC-1; clone CC-1, Genetex, Irvine, Calif.). Secondary staining was performed using polyclonal fluorophore-conjugated antibodies from ThermoFisher Scientific at a concentration of 1:500 unless otherwise specified: goat anti-chicken Alexa Fluor® 555 (AF555), goat anti-rabbit Alexa Fluor® 647 (AF647), donkey anti-chicken IgY Cy3 (EMD Millipore), goat anti-rat IgG AF647, goat anti-rabbit IgG Cy3 (EMD Millipore), goat anti-mouse IgG2b AF647 and rabbit anti-goat AF647. Nuclei were counter stained with 4′,6-Diamidino-2-phenylindole (DAPI, 2 ng/ml; Molecular Probes) for 10 minutes after incubation with secondary antibodies, and sections were mounted on glass slides, allowed to dry, and coverslipped with Fluoromount G mounting medium (Thermo Fisher Scientific) for imaging.
Confocal Microscopy: Thoracic spinal cord dorsal and ventral column sections, as well as CC were imaged using an Olympus BX61 confocal microscope (Olympus America Inc., Center Valley, Pa.) using a 10× and 40× objective. Z-stack projections were compiled using SlideBook 6 software (Intelligent Imaging Innovations, Inc., Denver, Colo.). Immunostaining was quantified using unbiased stereology (Crawford et al., 2010). All images (RGB) were Confocal converted to grayscale, split, and separated by color channel using imageJ version 2.2.0-rc-46/1.50 g (NIH). To avoid experimenter bias, auto-adjustment of brightness and contrast, as well as threshold of staining signal, was carried out by ImageJ. MBP^+, GFAP^+, CD45^+, Iba1^+, CC1^+, and CXCL1^+, staining intensity was measured as percent area of positive immunoreactivity within the region of interest and intensity of signal determined by ImageJ.
Under inflammatory conditions, such as those generated by MS, astrocytes undergo NF-κB-dependent upregulation of CXCL1, which is thought to recruit OPCs to the site of demyelinating injury (Omari et al., 2006; Xue et al., 2014). Thus, having observed that IndCl raised its production by peripheral leukocytes, CXCL1 expression in thoracic ventral column white matter was next evaluated.

EAE mice = assay: Rotarod behavioral assay in EAE mice; assay type: in vivo, mouse; set-up: key to Disability: Rotarod performance: ‘+’ indicate marker was significantly (p ≤ 0.05) increased in treatment group relative to vehicle; ‘−’ indicates marker was significantly (p ≤ 0.05) decreased in treatment group relative to vehicle; ○: ‘o’ indicate marker did not change relative to vehicle; conditions: for Disability: Rotarod performance: vs vehicle; for rotarod performance (motor function): therapeutic s.c. from day 8 (postEAE)
Protocol: Rotarod behavioral assay: Motor behavior was tested up to two times per week for each mouse using a rotarod apparatus (Med Associates, Inc., St. Albans, Vt.). Briefly, animals were placed on a rotating horizontal cylinder for a maximum of 200 seconds. The amount of time the mouse remained walking on the cylinder without falling was recorded. Each mouse was tested on a speed of 3-30 rpm and given three trials for any given day. The three trials were averaged to report a single value for an individual mouse, and averages were then calculated for all animals within a given treatment group (Moore et al., 2014). The first two trial days prior to immunization served as practice trials.
As a complementary assay of motor function, mice were tested on a rotarod device following a previously described protocol (Moore et al., 2014). […] (FIG. 2B).

[1] = Post (therapeutic, postEAE) treatment of EAE mice
[2] = Pre (prophylactic, preEAE) E2 treatment of EAE mice

RBA ERα (ERα): 0.40%
Compound: Oc1ccc(-n2nc3ccc(O)cc3c2Cl)c(Cl)c1 [IndCl-o-Cl, 3-chloro-2-(2-chloro-4-hydroxyphenyl)-2H-indazol-5-ol]
Myelination: g-ratio (corpus callosum axons): − | CNS Chemokines: CXCL1 (CXCL1; [1]): + | CXCL1 staining intensity, thoracic ventral column (CXCL1): significant increase; also recorded: significantly increased | Disability: Rotarod performance (EAE mice; [1]): + | rotarod performance (motor function) (EAE mice): increase of EAE mice remaining on the rotarod; also recorded: improved rotarod performance

Compound: C[C@]12CC[C@@H]3c4ccc(O)cc4CC[C@H]3[C@@H]1CC[C@@H]2O [E2, 170 estradiol]
CNS Chemokines: CXCL1 (CXCL1; [1]): + | CNS Chemokines: CXCL1 (CXCL1; [2]): ○ | Disability: Rotarod performance (EAE mice; [1]): ○ | Disability: Rotarod performance (EAE mice; [2]): +

RBA ERα (ERα): 0.03%
Compound: Oc1ccc(-n2nc3ccc(O)cc3c2Cl)cc1 [IndCl, chloroindazole]
Myelination: g-ratio (corpus callosum axons): − | g-ratio of callosal axons (corpus callosum axons; therapeutic treatment (postEAE)): decreased | CNS Chemokines: CXCL1 (CXCL1; [1]): + | CXCL1 staining intensity, thoracic ventral column (CXCL1): significant increase; also recorded: significantly increased | Disability: Rotarod performance (EAE mice; [1]): ○ | rotarod performance (motor function) (EAE mice): had a tendency to fall from the cylinder abruptly

RBA ERα (ERα): 0.43%
Compound: Cc1cc(O)ccc1-n1nc2ccc(O)cc2c1Cl [IndCl-o-Me, 3-chloro-2-(4-hydroxy-2-methylphenyl)-2H-indazol-5-ol]
Myelination: g-ratio (corpus callosum axons): − | CNS Chemokines: CXCL1 (CXCL1; [1]): + | CXCL1 staining intensity, thoracic ventral column (CXCL1): significant increase; also recorded: significantly increased | Disability: Rotarod performance (EAE mice; [1]): + | rotarod performance (motor function) (EAE mice): improved rotarod performance; also recorded: greatest improvement in motor function
